Source: patent US8563067B2, “Extended shelf life and bulk transport of perishable organic liquids with low pressure carbon dioxide” (Cornell Research Foundation, Inc., priority 2004, dated 2013)
Like-named read-outs stand apart in the source and are kept apart here.

Experiments:
[1] = tested on: gram-negative lactose fermenting bacteria; assay: Gram-negative lactose fermenting bacteria on MacConkey agar, raw milk under CO2 pressure (Example 1); format: cell-based; details: 6.1° C., 4 days
Method: (§1) Raw milk from the T&R Center was monitored for changes in aerobic bacteria, gram-negative bacteria and total Lactobacillus spp. as follows: CO2 pressures of 0 (control), 68, 172, 344, 516 and 689 kPa, at 6.1° C. for 4-days. SPC, gram-negative bacteria and total Lactobacillus spp. were enumerated before (day 0) and after (day 4) treatment. Gram negative bacteria were enumerated on MacConkey Agar (Difco Manual, Becton Dickinson & Co., Sparks, Md.), a selective and differential media which can be used to discriminate between lactose fermenting and non-lactose fermenting gram-negative bacteria. Use of this media allows a one-step method of obtaining estimates of both coliform and non-coliform gram negative bacteria. Coliform bacteria may include species of Escherichia, Klebsiella and Enterobacter, potential pathogens and/or spoilage organisms. Non-coliform gram negative bacteria may include spoilage organisms such as pseudomonads or potential pathogens such as Salmonella spp. or Shigella spp. […]
(§2) For all microbiological assays, milk sample aliquots of 1 ml were used in dilution series. […] Representative and distinctive suspect colonies were gram stained, and confirmed gram positive bacilli colonies were counted as an estimate of total Lactobacillus spp.

[2] = pH of raw milk after CO2 pressure treatment (Example 1); format: physicochemical; details: for pH after treatment (6.6 before treatment): 6.1° C., 4 days; for pH of milk samples: 10° C.
Method: The pH of the treated and control milk samples (as measured at atmospheric pressure) was 6.6 to 5.9 at CO2 pressures≦516 kPa and 5.7 when treated at pressures≧516 kPa and 20° C. The pH of the treated and control milk samples, when treated at 10° C., was 5.5 at CO2 pressures≦516 kPa and 5.8 when treated at pressures≧516 kPa.

Lactobacillus plantarum = details: CO2 pressures of 13 MPa, 30° C., 30 minutes (Hong and Pyun, 1999); cited from earlier work
thermoduric bacteria = assay: Thermoduric bacteria (laboratory pasteurization count) in raw milk under CO2 pressure (Example 1); format: cell-based; details: 4° C.
Method: (§3) Milk samples were mixed and 5 ml of milk added into the treatment and control vessels. The treatment vessel was connected to the apparatus and the control vessel closed off. Both vessels were placed in the water bath. When the desired temperatures were attained in both treatment and control vessels, CO2 was introduced through the bottom of the treatment vessel until the set pressure was reached. The CO2 pressure was maintained throughout the test period. When the desired time was reached, the CO2 inlet was turned off, the pressure release valve on the outlet line opened, and the pressure released in under one minute. After depressurization, the treatment and control vessels were removed from the water bath and their external surfaces were wiped dry, sanitized with 95% ethanol, detached from the apparatus and transferred into sterile containers for dilution and plating.
(§4) The progression of these counts (total, Coliform/E. coli and thermoduric bacteria) in the treatment and control samples was tracked by conducting checks on the total aerobic counts (SPC) on treatment days 4 and 6. Based on the levels of total counts on days 4 and 6, analyses of total coli forms/E. coli and thermoduric bacteria after day 6 were conducted either in 1-day or 2-day intervals. The control sample final count was measured on days 4 and 6.
(§5) Initial total, coliform, and thermoduric counts were each determined for control and treated samples. Thermoduric organisms were enumerated by the laboratory pasteurization count (LPC) method described in the Standard Methods for the Examination of Dairy Products (Houghtby et al., 1992). The 3M Petri film count plate (3M Microbiology Products, St. Paul, Minn.) was used to enumerate total coli forms and Escherichia coli in the raw, treated and control milk samples.

Escherichia coli = assay: E. coli count (Petrifilm) in raw milk under CO2 pressure (Example 1); format: cell-based; details: 4° C.
Method: as §3, §4, §5

Lactobacillus spp. [3] = details: 30 and 45 ppm CO2 (Espie and Madden, 1997); cited from earlier work
Lactobacillus spp. [4] = assay: Total Lactobacillus spp. on acidified MRS agar, raw milk under CO2 pressure (Example 1); format: cell-based; details: current study
Method: as §1, §2

coliforms = assay: Total coliforms (Petrifilm) in raw milk under CO2 pressure (Example 1); format: cell-based; details: 689 kPa CO2 pressure, 4° C.
Method: as §3, §4, §5

[5] = tested on: gram-negative non-lactose fermenting bacteria; assay: Gram-negative non-lactose fermenting bacteria on MacConkey agar, raw milk under CO2 pressure (Example 1); format: cell-based; details: 6.1° C., 4 days
Method: as §1, §2

[6] = tested on: milk microbiota (SPC, aerobic microorganisms); details: cited from earlier work; for extension in storage life: 30 ppm CO2 (King and Mabbitt, 1982)
[7] = 689 kPa CO2 pressure, 4 days, raw milk
[8] = 689 kPa CO2 pressure, 6 days, raw milk
[9] = 689 kPa CO2 pressure, 8 days, raw milk
[10] = 689 kPa CO2 pressure, 9 days, raw milk

## O=C=O [CO2, carbon dioxide]
[1]; 68 to 689 kPa
  levels of gram-negative fermenters compared to untreated controls: reduced at all pressures
[1]; 689 kPa
  decrease of gram-negative lactose fermenting bacteria compared to initial counts: 0.80 log10 cfu/ml
[2]; 68 kPa
  pH after treatment (6.6 before treatment): 5.9
[2]; 344 kPa
  pH after treatment (6.6 before treatment): 5.8
[2]; 516 kPa
  pH after treatment (6.6 before treatment): 5.5
[2]; 689 kPa, 4° C., end of days 4, 6, 8 and 9
  pH of treated milk (initial value 6.6): 5.5
[2]; CO2 pressures ≦516 kPa
  pH of milk samples: 5.5
[2]; pressures ≧516 kPa
  pH of milk samples: 5.8
[2]; pressures ≧516 kPa, 20° C.
  pH of milk samples (measured at atmospheric pressure): 5.7
Lactobacillus plantarum
  reductions in populations of Lactobacillus plantarum: more than 6 logs
Thermoduric bacteria; [7]
  Thermoduric Bacteria counts, Treated, 4 Days: 1.0 * 10^0 cfu/ml
Thermoduric bacteria; [8]
  Thermoduric Bacteria counts, Treated, 6 Days: 9.0 * 10^0m cfu/ml
Thermoduric bacteria; [9]
  Thermoduric Bacteria counts, Treated, 8 Days: 2.1 * 10^1n cfu/ml
Thermoduric bacteria; [10]
  Thermoduric Bacteria counts, Treated, 9 Days: 3.7 * 10^1o cfu/ml
Thermoduric bacteria; 689 kPa, up to 9 days
  total thermoduric bacteria counts in treated milk: Neither E. coli nor total thermoduric bacteria counts increased
Escherichia coli; [7]
  E.coli counts, Treated, 4 Days: 1.7 * 10^1k cfu/ml
Escherichia coli; [8]
  E.coli counts, Treated, 6 Days: 1.7 * 10^1k cfu/ml
Escherichia coli; [9]
  E.coli counts, Treated, 8 Days: 1.7 * 10^1k cfu/ml
Escherichia coli; [10]
  E.coli counts, Treated, 9 Days: 1.5 * 10^1k cfu/ml
Escherichia coli; 689 kPa, up to 9 days
  E. coli counts in treated milk: Neither E. coli nor total thermoduric bacteria counts increased
Lactobacillus spp. [3]
  effect on the growth of Lactobacillus spp.: no effect
Lactobacillus spp. [4]
  populations of Lactobacillus after CO2 pressure treatment: decreased
coliforms; 4 days
  Coliforms counts, Treated, 4 Days: 1.0 * 10^2h cfu/ml
coliforms; 6 days
  Coliforms counts, Treated, 6 Days: 1.0 * 10^2h cfu/ml
coliforms; 8 days
  Coliforms counts, Treated, 8 Days: 9.3 * 10^1h cfu/ml
coliforms; 9 days
  Coliforms counts, Treated, 9 Days: 9.0 * 10^1h cfu/ml
[5]; 68 to 689 kPa
  levels of gram-negative non-fermenters compared to untreated controls: reduced at all pressures
[5]; 689 kPa
  decrease of gram-negative non-lactose fermenting bacteria compared to initial counts: 0.64 log10 cfu/ml
[6]; 20-30 pmm dissolved CO2, 4 days at 7° C. (Mabbitt, 1982)
  SPC lower compared to control milk: 3 log10 cfu/ml
[6]; 3997 kPa (or 5800 psi) CO2, ≧40° C., 30 min (Calvo and Bacones, 2001)
  decrease in bulk raw milk microbiota: 2 log10 cfu/ml
[6]; 6044 kPa CO2, 45° C., 24 h (Erkman, 2000)
  reduction in aerobic microorganisms in whole milk: 6 log10 cfu/ml
[6]; 14598 kPa CO2, 25° C., 5-h (Erkman, 1997)
  reduction: 8 log10 cfu/ml
[6]; addition of CO2, storage at 6.7° C. for 48 h (Shipe et al., 1978)
  reduction of bacterial growth in raw milk: 50%
[6]; good quality milk (10^3 cfu/ml)
  extension in storage life: 3 days
[6]; poor quality milk (10^5 cfu/ml)
  extension in storage life: 1.2 days
